# According to article PMC10648875 (Antimicrobial Agents and Chemotherapy, 2023):
# Several values for one entry are separate records, joined by “and”; a condition that tells them apart may be missing. Equal entries are not always repeated.
# Key:
# CTX-M-14 = CTX-M-14 (Escherichia coli, UniProt Q9L5C7); test: Ki app of β-lactamase inhibition, purified enzyme; assay type: biochemical; conditions: 10-minute preincubation; nitrocefin substrate
# Protocol: (§1) The majority of purified β-lactamase enzymes used in the study were either expressed and purified internally ([35]) or obtained from Emerald Biostructures (Bainbridge Island, WA, USA). L1 enzyme was purified as described in reference ([36]).
# (§2) Enzymes were mixed with BLIs at concentrations varying from 160 to 0.0027 µM in 50-mM Na-phosphate pH7.0, 0.1-mg/mL bovide serum albumin (BSA) (buffer A; 20-µM ZnCl2 was also added for all metalloenzymes) and incubated for 10 minutes at 37°C. Nitrocefin (50 µM) (10 µM for SHV-12) or 100 µM of imipenem (prewarmed at 37°C for 10 minutes) was added, and substrate cleavage profiles were recorded at 37°C at 490 nm every 10 seconds for 10 minutes or at 294 nm every 30 seconds for 1 hour for nitrocefin and imipenem, respectively. […] Ki app values (Ki for metalloenzymes) were calculated by the method of Waley ([37]).
# CTX-M-15 = CTX-M-15 (Escherichia coli, UniProt Q9EXV5); test: Ki app of β-lactamase inhibition, purified enzyme; assay type: biochemical; conditions: 10-minute preincubation; nitrocefin substrate
# Sequence of CTX-M-15 (Q9EXV5 entry or part of it): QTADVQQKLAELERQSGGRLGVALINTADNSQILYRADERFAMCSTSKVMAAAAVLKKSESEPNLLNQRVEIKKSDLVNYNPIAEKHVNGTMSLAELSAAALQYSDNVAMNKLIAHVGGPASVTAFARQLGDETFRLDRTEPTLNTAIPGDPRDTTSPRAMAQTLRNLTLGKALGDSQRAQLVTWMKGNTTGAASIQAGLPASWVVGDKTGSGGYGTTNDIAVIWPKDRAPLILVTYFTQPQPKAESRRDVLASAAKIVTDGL
# Protocol: as §1, §2
# OXA-23 = OXA-23 (Acinetobacter baumannii, UniProt Q9L4P2); test: Ki app of β-lactamase inhibition, purified enzyme; assay type: biochemical; conditions: 10-minute preincubation; nitrocefin substrate
# Sequence of OXA-23 (Q9L4P2 18-273): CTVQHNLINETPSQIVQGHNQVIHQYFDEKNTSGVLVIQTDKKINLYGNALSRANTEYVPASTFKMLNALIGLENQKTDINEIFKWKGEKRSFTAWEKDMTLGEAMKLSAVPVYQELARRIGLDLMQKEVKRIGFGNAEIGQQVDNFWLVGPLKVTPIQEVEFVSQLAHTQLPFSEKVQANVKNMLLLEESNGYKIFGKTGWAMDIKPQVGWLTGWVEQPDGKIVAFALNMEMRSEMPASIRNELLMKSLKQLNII
# Protocol: as §1, §2
# P99 = P99 (Enterobacter cloacae, UniProt P05364); test: Ki app of β-lactamase inhibition, purified enzyme; assay type: biochemical; conditions: 10-minute preincubation; nitrocefin substrate; read-out: Ki app
# Sequence of P99 (P05364 21-381): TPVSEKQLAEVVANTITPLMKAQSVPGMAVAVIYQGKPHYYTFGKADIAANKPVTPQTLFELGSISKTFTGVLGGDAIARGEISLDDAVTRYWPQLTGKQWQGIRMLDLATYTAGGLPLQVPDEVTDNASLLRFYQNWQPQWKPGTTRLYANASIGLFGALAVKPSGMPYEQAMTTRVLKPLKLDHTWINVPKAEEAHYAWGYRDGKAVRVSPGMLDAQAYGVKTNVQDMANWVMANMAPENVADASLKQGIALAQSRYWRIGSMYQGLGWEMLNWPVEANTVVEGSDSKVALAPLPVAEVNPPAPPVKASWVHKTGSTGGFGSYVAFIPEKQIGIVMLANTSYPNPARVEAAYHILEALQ
# Protocol: as §1, §2
# PDC1 = PDC1 (Pseudomonas aeruginosa, UniProt P24735); test: Ki app of β-lactamase inhibition, purified enzyme; assay type: biochemical; conditions: 10-minute preincubation; nitrocefin substrate
# Sequence of PDC1 (P24735 27-397): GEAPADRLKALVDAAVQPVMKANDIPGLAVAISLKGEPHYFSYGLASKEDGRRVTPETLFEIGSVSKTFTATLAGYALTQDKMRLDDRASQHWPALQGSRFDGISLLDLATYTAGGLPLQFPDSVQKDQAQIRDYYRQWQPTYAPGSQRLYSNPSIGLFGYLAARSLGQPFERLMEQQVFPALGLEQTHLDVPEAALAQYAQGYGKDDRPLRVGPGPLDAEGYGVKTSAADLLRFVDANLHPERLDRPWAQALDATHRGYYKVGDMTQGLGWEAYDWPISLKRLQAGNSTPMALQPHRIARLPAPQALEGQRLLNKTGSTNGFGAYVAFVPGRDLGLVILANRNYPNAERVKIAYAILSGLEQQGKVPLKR
# Protocol: as §1, §2
# [1] = tested on: isogenic efflux and porin mutants of K. pneumoniae and their NDM-1-producing derivatives; test: MIC against isogenic efflux and porin mutants (Table 9); assay type: cell-based; conditions: for BLI MIC / MIC: BLI alone; for MIC: Klebsiella pneumoniae
# [2] = KPM1026a, Wild type, ATCC 43816, β-lactamase None, BLI 0 µg/mL
# [3] = KPM1026a, Wild type, ATCC 43816, β-lactamase None, BLI 4 µg/mL
# [4] = KPM1026a, Wild type, ATCC 43816, β-lactamase None, BLI 8 µg/mL
# [5] = KPM1027, ramR*, β-lactamase None, BLI 0 µg/mL
# [6] = KPM1027, ramR*, β-lactamase None, BLI 4 µg/mL
# [7] = KPM1027, ramR*, β-lactamase None, BLI 8 µg/mL
# [8] = KPM1281, Wild type, ATCC 43816, NDM-1, BLI 0 µg/mL
# [9] = KPM1281, Wild type, ATCC 43816, NDM-1, BLI 4 µg/mL
# [10] = KPM1281, Wild type, ATCC 43816, NDM-1, BLI 8 µg/mL
# [11] = KPM1282, ramR*, NDM-1, BLI 0 µg/mL
# [12] = KPM1282, ramR*, NDM-1, BLI 4 µg/mL
# [13] = KPM1282, ramR*, NDM-1, BLI 8 µg/mL
# [14] = KPM2013, mpK36_2040 ΔompK35, β-lactamase None, BLI 0 µg/mL
# [15] = KPM2013, mpK36_2040 ΔompK35, β-lactamase None, BLI 4 µg/mL
# [16] = KPM2013, mpK36_2040 ΔompK35, β-lactamase None, BLI 8 µg/mL
# [17] = KPM2013, mpK36_2040 ΔompK35, β-lactamase None
# [18] = KPM2040, mpK36_2040*, β-lactamase None, BLI 0 µg/mL
# [19] = KPM2040, mpK36_2040*, β-lactamase None, BLI 4 µg/mL
# [20] = KPM2040, mpK36_2040*, β-lactamase None, BLI 8 µg/mL
# [21] = KPM2040, mpK36_2040*, β-lactamase None
# [22] = KPM3820, mpK36_2040*, NDM-1, BLI 0 µg/mL
# [23] = KPM3820, mpK36_2040*, NDM-1, BLI 4 µg/mL
# [24] = KPM3820, mpK36_2040*, NDM-1, BLI 8 µg/mL
# [25] = KPM3825, mpK36_2040 ΔompK35, NDM-1, BLI 0 µg/mL
# [26] = KPM3825, mpK36_2040 ΔompK35, NDM-1, BLI 4 µg/mL
# [27] = KPM3825, mpK36_2040 ΔompK35, NDM-1, BLI 8 µg/mL
# [28] = KPM3825, mpK36_2040 ΔompK35, NDM-1
# Sequence of CTX-M-14 (Q9L5C7 entry or part of it): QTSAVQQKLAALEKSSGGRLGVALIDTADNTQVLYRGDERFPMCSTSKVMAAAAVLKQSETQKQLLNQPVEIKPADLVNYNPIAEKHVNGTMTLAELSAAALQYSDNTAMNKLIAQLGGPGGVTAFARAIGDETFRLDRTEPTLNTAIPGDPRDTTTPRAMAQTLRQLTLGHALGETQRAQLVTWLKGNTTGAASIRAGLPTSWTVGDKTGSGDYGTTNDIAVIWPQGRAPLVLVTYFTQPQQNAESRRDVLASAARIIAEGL
smiles,measurement,setting,value
"NCCN[C@H]1CC[C@H](CC(=O)N[C@H]2Cc3cccc(C(=O)O)c3OB2O)CC1 [Taniborbactam, taniborbactam]",Ki,CTX-M-14,1.2 ± 0.5 nM
same,Ki,CTX-M-15,2.6 ± 0.1 nM
same,Ki,OXA-23,> 20000 nM
same,Ki,P99,2.4 ± 0.5 nM
same,Ki,PDC1,22 nM
same,Cefepime MIC with BLIs,[1]; [2],0.03 µg/mL
same,Meropenem MIC with BLIs,[1]; [2],0.03 µg/mL
same,Cefepime MIC with BLIs,[1]; [3],0.03 µg/mL
same,Meropenem MIC with BLIs,[1]; [3],0.03 µg/mL
same,Cefepime MIC with BLIs,[1]; [4],0.03 µg/mL
same,Meropenem MIC with BLIs,[1]; [4],0.03 µg/mL
same,BLI MIC,"[1]; KPM1026a, Wild type, ATCC 43816, β-lactamase None",>64 µg/mL
same,Cefepime MIC with BLIs,[1]; [5],0.25 µg/mL
same,Meropenem MIC with BLIs,[1]; [5],0.06 µg/mL
same,Cefepime MIC with BLIs,[1]; [6],0.25 µg/mL
same,Meropenem MIC with BLIs,[1]; [6],0.06 µg/mL
same,Cefepime MIC with BLIs,[1]; [7],0.25 µg/mL
same,Meropenem MIC with BLIs,[1]; [7],0.06 µg/mL
same,BLI MIC,"[1]; KPM1027, ramR*, β-lactamase None",>64 µg/mL
same,Cefepime MIC with BLIs,[1]; [8],16 µg/mL
same,Meropenem MIC with BLIs,[1]; [8],32 µg/mL
same,Cefepime MIC with BLIs,[1]; [9],0.25 µg/mL
same,Meropenem MIC with BLIs,[1]; [9],0.125 µg/mL
same,Cefepime MIC with BLIs,[1]; [10],0.125 µg/mL
same,Meropenem MIC with BLIs,[1]; [10],0.06 µg/mL
same,BLI MIC,"[1]; KPM1281, Wild type, ATCC 43816, NDM-1",>64 µg/mL
same,Cefepime MIC with BLIs,[1]; [11],32 µg/mL
same,Meropenem MIC with BLIs,[1]; [11],64 µg/mL
same,Cefepime MIC with BLIs,[1]; [12],0.5 µg/mL
same,Meropenem MIC with BLIs,[1]; [12],0.25 µg/mL
same,Cefepime MIC with BLIs,[1]; [13],0.5 µg/mL
same,Meropenem MIC with BLIs,[1]; [13],0.125 µg/mL
same,BLI MIC,"[1]; KPM1282, ramR*, NDM-1",>64 µg/mL
same,Cefepime MIC with BLIs,[1]; [14],0.5 µg/mL
same,Meropenem MIC with BLIs,[1]; [14],0.25 µg/mL
same,Cefepime MIC with BLIs,[1]; [15],0.5 µg/mL
same,Meropenem MIC with BLIs,[1]; [15],0.25 µg/mL
same,Cefepime MIC with BLIs,[1]; [16],0.5 µg/mL
same,Meropenem MIC with BLIs,[1]; [16],0.25 µg/mL
same,BLI MIC,[1]; [17],>64 µg/mL
same,Cefepime MIC with BLIs,[1]; [18],0.125 µg/mL
same,Meropenem MIC with BLIs,[1]; [18],0.125 µg/mL
same,Cefepime MIC with BLIs,[1]; [19],0.125 µg/mL
same,Meropenem MIC with BLIs,[1]; [19],0.125 µg/mL
same,Cefepime MIC with BLIs,[1]; [20],0.125 µg/mL
same,Meropenem MIC with BLIs,[1]; [20],0.125 µg/mL
same,BLI MIC,[1]; [21],>64 µg/mL
same,Cefepime MIC with BLIs,[1]; [22],128 µg/mL
same,Meropenem MIC with BLIs,[1]; [22],128 µg/mL
same,Cefepime MIC with BLIs,[1]; [23],4 µg/mL
same,Meropenem MIC with BLIs,[1]; [23],8 µg/mL
same,Cefepime MIC with BLIs,[1]; [24],2 µg/mL
same,Meropenem MIC with BLIs,[1]; [24],4 µg/mL
same,BLI MIC,"[1]; KPM3820, mpK36_2040*, NDM-1",>64 µg/mL
same,Cefepime MIC with BLIs,[1]; [25],256 µg/mL
same,Meropenem MIC with BLIs,[1]; [25],256 µg/mL
same,Cefepime MIC with BLIs,[1]; [26],8 µg/mL
same,Meropenem MIC with BLIs,[1]; [26],32 µg/mL
same,Cefepime MIC with BLIs,[1]; [27],4 µg/mL
same,Meropenem MIC with BLIs,[1]; [27],16 µg/mL
same,BLI MIC,[1]; [28],>64 µg/mL
"O=C(O)c1c(F)ccc2c1OB(O)[C@@H]1C[C@H]21 [Xeruborbactam, xeruborbactam]",Ki,CTX-M-14,0.29 ± 0.06 nM
same,Ki,CTX-M-15,0.37 ± 0.01 nM
same,Ki,OXA-23,0.74 ± 0.28 nM
same,Ki,P99,8 nM and 8.5 nM
same,Ki,PDC1,14 nM
same,Cefepime MIC with BLIs,[1]; [2],0.03 µg/mL
same,Meropenem MIC with BLIs,[1]; [2],0.03 µg/mL
same,Cefepime MIC with BLIs,[1]; [3],0.015 µg/mL
same,Meropenem MIC with BLIs,[1]; [3],0.015 µg/mL
same,Cefepime MIC with BLIs,[1]; [4],0.002 µg/mL
same,Meropenem MIC with BLIs,[1]; [4],0.008 µg/mL
same,Cefepime MIC with BLIs,[1]; [5],0.25 µg/mL
same,Meropenem MIC with BLIs,[1]; [5],0.06 µg/mL
same,Cefepime MIC with BLIs,[1]; [6],0.125 µg/mL
same,Meropenem MIC with BLIs,[1]; [6],0.015 µg/mL
same,Cefepime MIC with BLIs,[1]; [7],0.015 µg/mL
same,Meropenem MIC with BLIs,[1]; [7],0.004 µg/mL
same,Cefepime MIC with BLIs,[1]; [8],16 µg/mL
same,Meropenem MIC with BLIs,[1]; [8],32 µg/mL
same,Cefepime MIC with BLIs,[1]; [9],0.03 µg/mL
same,Meropenem MIC with BLIs,[1]; [9],0.06 µg/mL
same,Cefepime MIC with BLIs,[1]; [10],0.008 µg/mL
same,Meropenem MIC with BLIs,[1]; [10],0.004 µg/mL
same,Cefepime MIC with BLIs,[1]; [11],32 µg/mL
same,Meropenem MIC with BLIs,[1]; [11],64 µg/mL
same,Cefepime MIC with BLIs,[1]; [12],0.25 µg/mL
same,Meropenem MIC with BLIs,[1]; [12],0.125 µg/mL
same,Cefepime MIC with BLIs,[1]; [13],0.06 µg/mL
same,Meropenem MIC with BLIs,[1]; [13],0.03 µg/mL
same,Cefepime MIC with BLIs,[1]; [14],0.5 µg/mL
same,Meropenem MIC with BLIs,[1]; [14],0.25 µg/mL
same,Cefepime MIC with BLIs,[1]; [15],0.25 µg/mL
same,Meropenem MIC with BLIs,[1]; [15],0.125 µg/mL
same,Cefepime MIC with BLIs,[1]; [16],0.06 µg/mL
same,Meropenem MIC with BLIs,[1]; [16],0.06 µg/mL
same,Cefepime MIC with BLIs,[1]; [18],0.125 µg/mL
same,Meropenem MIC with BLIs,[1]; [18],0.125 µg/mL
same,Cefepime MIC with BLIs,[1]; [19],0.06 µg/mL
same,Meropenem MIC with BLIs,[1]; [19],0.06 µg/mL
same,Cefepime MIC with BLIs,[1]; [20],0.015 µg/mL
same,Meropenem MIC with BLIs,[1]; [20],0.03 µg/mL
same,Cefepime MIC with BLIs,[1]; [22],128 µg/mL
same,Meropenem MIC with BLIs,[1]; [22],128 µg/mL
same,Cefepime MIC with BLIs,[1]; [23],1 µg/mL
same,Meropenem MIC with BLIs,[1]; [23],4 µg/mL
same,Cefepime MIC with BLIs,[1]; [24],0.5 µg/mL
same,Meropenem MIC with BLIs,[1]; [24],1 µg/mL
same,Cefepime MIC with BLIs,[1]; [25],256 µg/mL
same,Meropenem MIC with BLIs,[1]; [25],256 µg/mL
same,Cefepime MIC with BLIs,[1]; [26],2 µg/mL
same,Meropenem MIC with BLIs,[1]; [26],8 µg/mL
same,Cefepime MIC with BLIs,[1]; [27],1 µg/mL
same,Meropenem MIC with BLIs,[1]; [27],2 µg/mL
same,MIC,"[1]; ATCC43816, KPM1026a, Wild type, ATCC 43816, β-lactamase None",16 µg/mL
same,MIC,"[1]; ATCC43816, KPM1281, Wild type, ATCC 43816, NDM-1",16 µg/mL
same,MIC,[1]; [17],32 µg/mL
same,MIC,[1]; [21],32 µg/mL
same,MIC,"[1]; KPM3820, mpK36_2040*, NDM-1",32 µg/mL
same,MIC,[1]; [28],32 µg/mL
